Converted amounts (≈) assume the structure as drawn.
Assays:
[1] = test system: E. faecium ATCC19434; assay: MIC, agar plate dilution method, E. faecium ATCC19434; assay type: cell-based, Enterococcus faecium; conditions: for minimal inhibitory concentration (MIC): E. faecium ATCC19434; for MIC: Enterococcus faecium, ATCC19434, E. faecium ATCC19434, read-out: minimal inhibitory concentration (MIC)
Method in brief: (§1)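 Japan Society of Chemotherapy agar dilution protocol used. MIC reported in μg/mL.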

[2] = test system: S. aureus RN4220/pMS520; assay: MIC, agar plate dilution method, S. aureus RN4220/pMS520; assay type: cell-based, Staphylococcus aureus; conditions: for minimal inhibitory concentration (MIC): S. aureus RN4220/pMS520, MRSA; for MIC: Staphylococcus aureus, MRSA, read-out: minimal inhibitory concentration (MIC), S. aureus RN4220/pMS520, MRSA
Method in brief: as §1

[3] = test system: S. aureus MF490; assay: MIC, agar plate dilution method, S. aureus MF490; assay type: cell-based, Staphylococcus aureus; conditions: for minimal inhibitory concentration (MIC): S. aureus MF490, MRSA; for MIC: Staphylococcus aureus, MRSA, read-out: minimal inhibitory concentration (MIC)
Method in brief: as §1

[4] = test system: P. aeruginosa PAO1; assay: MIC, agar plate dilution method, P. aeruginosa PAO1; assay type: cell-based, Pseudomonas aeruginosa; conditions: for minimal inhibitory concentration (MIC): P. aeruginosa PAO1, Sensitive bacterium; for MIC: Pseudomonas aeruginosa, PAO1, P. aeruginosa PAO1, Sensitive bacterium, read-out: minimal inhibitory concentration (MIC)
Method in brief: as §1

[5] = test system: K. pneumoniae ATCC BAA-1705; assay: MIC, agar plate dilution method, K. pneumoniae ATCC BAA-1705; assay type: cell-based, Klebsiella pneumoniae; conditions: for minimal inhibitory concentration (MIC): K. pneumoniae ATCC BAA-1705, KPC-producing strain; for MIC: Klebsiella pneumoniae, ATCCBAA1705, K. pneumoniae ATCC BAA-1705, KPC-producing strain, read-out: minimal inhibitory concentration (MIC)
Method in brief: as §1

[6] = test system: A. baumannii ATCC BAA-1710; assay: MIC, agar plate dilution method, A. baumannii ATCC BAA-1710; assay type: cell-based, Acinetobacter baumannii; conditions: for minimal inhibitory concentration (MIC): A. baumannii ATCC BAA-1710, MDRA; for MIC: Acinetobacter baumannii, ATCCBAA1710, A. baumannii ATCC BAA-1710, MDRA, read-out: minimal inhibitory concentration (MIC)
Method in brief: as §1

[7] = test system: E. coli JM109/pMW218; assay: MIC, agar plate dilution method, E. coli JM109/pMW218; assay type: cell-based, Escherichia coli; conditions: for minimal inhibitory concentration (MIC): E. coli JM109/pMW218, Sensitive bacterium; for MIC: Escherichia coli, JM109/PMW218, E. coli JM109/pMW218, Sensitive bacterium, read-out: minimal inhibitory concentration (MIC)
Method in brief: as §1

[8] = test system: S. marcescens GN6944; assay: MIC, agar plate dilution method, S. marcescens GN6944; assay type: cell-based, Serratia marcescens; conditions: S. marcescens GN6944, GM-resistant; for MIC: Serratia marcescens, read-out: minimal inhibitory concentration (MIC)
Method in brief: as §1

[9] = test system: P. aeruginosa PAO1/GN315; assay: MIC, agar plate dilution method, P. aeruginosa PAO1/GN315; assay type: cell-based, Pseudomonas aeruginosa; conditions: for minimal inhibitory concentration (MIC): P. aeruginosa PAO1/GN315, AMK-resistant; for MIC: Pseudomonas aeruginosa, read-out: minimal inhibitory concentration (MIC), P. aeruginosa PAO1/GN315, AMK-resistant
Method in brief: as §1

[10] = test system: K. pneumoniae ATCC BAA-2146; assay: MIC, agar plate dilution method, K. pneumoniae ATCC BAA-2146; assay type: cell-based, Klebsiella pneumoniae; conditions: for minimal inhibitory concentration (MIC): K. pneumoniae ATCC BAA-2146, NDM-producing strain; for MIC: Klebsiella pneumoniae, ATCCBAA2146, K. pneumoniae ATCC BAA-2146, NDM-producing strain, read-out: minimal inhibitory concentration (MIC)
Method in brief: as §1

[11] = test system: P. aeruginosa MSC17707; assay: MIC, agar plate dilution method, P. aeruginosa MSC17707; assay type: cell-based, Pseudomonas aeruginosa; conditions: for minimal inhibitory concentration (MIC): P. aeruginosa MSC17707, AMK-resistant; for MIC: Pseudomonas aeruginosa, MSC17707, P. aeruginosa MSC17707, AMK-resistant, read-out: minimal inhibitory concentration (MIC)
Method in brief: as §1

[12] = test system: S. marcescens TH-0447; assay: MIC, agar plate dilution method, S. marcescens TH-0447; assay type: cell-based, Serratia marcescens; conditions: for minimal inhibitory concentration (MIC): S. marcescens TH-0447, AMK-resistant; for MIC: Serratia marcescens, TH0447, S. marcescens TH-0447, AMK-resistant, read-out: minimal inhibitory concentration (MIC)
Method in brief: as §1

[13] = test system: P. aeruginosa MSC01035; assay: MIC, agar plate dilution method, P. aeruginosa MSC01035; assay type: cell-based, Pseudomonas aeruginosa; conditions: P. aeruginosa MSC01035, ABK-resistant; for MIC: Pseudomonas aeruginosa, read-out: minimal inhibitory concentration (MIC)
Method in brief: as §1

[14] = test system: S. aureus RN4220; assay: MIC, agar plate dilution method, S. aureus RN4220; assay type: cell-based, Staphylococcus aureus; conditions: for minimal inhibitory concentration (MIC): S. aureus RN4220, Sensitive bacterium; for MIC: Staphylococcus aureus, RN4220, S. aureus RN4220, Sensitive bacterium, read-out: minimal inhibitory concentration (MIC)
Method in brief: as §1

CN[C@@H]1[C@@H](O[C@H]2O[C@H](CO)[C@@H](N)[C@H](O)[C@H]2O)O[C@H]2C[C@@H](N)[C@@H](O[C@H]3[C@H](N)[C@@H](O)[C@H](N)C[C@@H]3N)O[C@@H]2[C@@H]1O [Compound E3, 5-amino-5-deoxyapramycin]
minimal inhibitory concentration (MIC) [1]: 64 µg/mL (≈ 119 µM) | minimal inhibitory concentration (MIC) [2]: 8 µg/mL (≈ 14.9 µM) | minimal inhibitory concentration (MIC) [3]: 16 µg/mL (≈ 29.7 µM) | minimal inhibitory concentration (MIC) [4]: 16 µg/mL (≈ 29.7 µM) | minimal inhibitory concentration (MIC) [5]: 4 µg/mL (≈ 7.43 µM) | minimal inhibitory concentration (MIC) [6]: 16 µg/mL (≈ 29.7 µM) | minimal inhibitory concentration (MIC) [7]: 4 µg/mL (≈ 7.43 µM) | minimal inhibitory concentration (MIC) [8]: 16 µg/mL (≈ 29.7 µM) | minimal inhibitory concentration (MIC) [9]: 16 µg/mL (≈ 29.7 µM) | minimal inhibitory concentration (MIC) [10]: 4 µg/mL (≈ 7.43 µM) | minimal inhibitory concentration (MIC) [11]: 16 µg/mL (≈ 29.7 µM) | minimal inhibitory concentration (MIC) [12]: 16 µg/mL (≈ 29.7 µM) | minimal inhibitory concentration (MIC) [13]: 16 µg/mL (≈ 29.7 µM) | minimal inhibitory concentration (MIC) [14]: 8 µg/mL (≈ 14.9 µM)

CNC1C(OC2OC(CO)C(NC(=N)N)CC2O)OC2CC(N)C(OC3CC(O)C(N)CC3N)OC2C1O (stereo not shown) [Compound U4-a, 4″-deamino-5,3″-dideoxy-4″-guanidinoapramycin]
minimal inhibitory concentration (MIC) [1]: 4 µg/mL (≈ 7.28 µM) | minimal inhibitory concentration (MIC) [2]: 1 µg/mL (≈ 1.82 µM) | minimal inhibitory concentration (MIC) [3]: 4 µg/mL (≈ 7.28 µM) | minimal inhibitory concentration (MIC) [4]: 4 µg/mL (≈ 7.28 µM) | minimal inhibitory concentration (MIC) [5]: 1 µg/mL (≈ 1.82 µM) | minimal inhibitory concentration (MIC) [6]: 8 µg/mL (≈ 14.6 µM) | minimal inhibitory concentration (MIC) [7]: 0.5 µg/mL (≈ 0.91 µM) | minimal inhibitory concentration (MIC) [8]: 2 µg/mL (≈ 3.64 µM) | minimal inhibitory concentration (MIC) [9]: 4 µg/mL (≈ 7.28 µM) | minimal inhibitory concentration (MIC) [10]: 0.5 µg/mL (≈ 0.91 µM) | minimal inhibitory concentration (MIC) [11]: 8 µg/mL (≈ 14.6 µM) | minimal inhibitory concentration (MIC) [12]: 4 µg/mL (≈ 7.28 µM) | minimal inhibitory concentration (MIC) [13]: 8 µg/mL (≈ 14.6 µM) | minimal inhibitory concentration (MIC) [14]: 1 µg/mL (≈ 1.82 µM)

CNC1C(O[C@H]2OC(CO)[C@@H](NC(=O)CN)[C@H](O)C2O)O[C@H]2CC(N)[C@@H](O[C@@H]3C(N)C[C@@H](N)C(O)[C@H]3O)OC2C1O (single isomer, unassigned) [Compound V1-i, 5-epi-4″-N-glycylapramycin]
MIC [1]: 16 µg/mL (≈ 26.8 µM) | MIC [2]: 2 µg/mL (≈ 3.35 µM) | MIC [3]: 8 µg/mL (≈ 13.4 µM) | MIC [4]: 2 µg/mL (≈ 3.35 µM) | MIC [5]: 2 µg/mL (≈ 3.35 µM) | MIC [6]: 4 µg/mL (≈ 6.7 µM) | MIC [7]: 1 µg/mL (≈ 1.68 µM) | MIC [8]: 8 µg/mL (≈ 13.4 µM) | MIC [9]: 4 µg/mL (≈ 6.7 µM) | MIC [10]: 1 µg/mL (≈ 1.68 µM) | minimal inhibitory concentration (MIC) [11]: 2 µg/mL (≈ 3.35 µM) | MIC [12]: 8 µg/mL (≈ 13.4 µM) | MIC [13]: 4 µg/mL (≈ 6.7 µM) | MIC [14]: 2 µg/mL (≈ 3.35 µM)

CNC1C(O[C@H]2OC(CO)[C@@H](NC(=O)[C@@H](O)CN)[C@H](O)C2O)O[C@H]2C[C@H](N)[C@@H](O[C@@H]3C(N)C[C@@H](N)C(O)[C@H]3O)OC2C1O (stereo partly drawn) [Compound V1-n, 5-epi-4″-N-(L-isoseryl)apramycin]
MIC [1]: 16 µg/mL (≈ 25.5 µM) | MIC [2]: 2 µg/mL (≈ 3.19 µM) | MIC [3]: 8 µg/mL (≈ 12.8 µM) | MIC [4]: 2 µg/mL (≈ 3.19 µM) | MIC [5]: 1 µg/mL (≈ 1.6 µM) | MIC [6]: 8 µg/mL (≈ 12.8 µM) | MIC [7]: 0.5 µg/mL (≈ 0.798 µM) | MIC [8]: 8 µg/mL (≈ 12.8 µM) | MIC [9]: 4 µg/mL (≈ 6.38 µM) | MIC [10]: 1 µg/mL (≈ 1.6 µM) | MIC [11]: 2 µg/mL (≈ 3.19 µM) | MIC [12]: 8 µg/mL (≈ 12.8 µM) | MIC [13]: 4 µg/mL (≈ 6.38 µM) | MIC [14]: 2 µg/mL (≈ 3.19 µM)

CNC1C(O[C@H]2OC(CO)[C@@H](NCCCN)[C@H](O)C2O)O[C@H]2CC(N)[C@@H](O[C@@H]3C(N)C[C@@H](N)C[C@H]3O)OC2C1O (stereo partly shown) [Compound S1-n, 6-deoxy-4″-N-(3-aminopropyl)-5-epiapramycin]
MIC [1]: 8 µg/mL (≈ 13.8 µM) | MIC [2]: 2 µg/mL (≈ 3.44 µM) | MIC [3]: 8 µg/mL (≈ 13.8 µM) | MIC [4]: 4 µg/mL (≈ 6.89 µM) | MIC [5]: 1 µg/mL (≈ 1.72 µM) | MIC [6]: 4 µg/mL (≈ 6.89 µM) | MIC [7]: 1 µg/mL (≈ 1.72 µM) | MIC [8]: 4 µg/mL (≈ 6.89 µM) | MIC [9]: 4 µg/mL (≈ 6.89 µM) | MIC [10]: 1 µg/mL (≈ 1.72 µM) | MIC [11]: 8 µg/mL (≈ 13.8 µM) | MIC [12]: 4 µg/mL (≈ 6.89 µM) | MIC [13]: 4 µg/mL (≈ 6.89 µM) | MIC [14]: 2 µg/mL (≈ 3.44 µM)

Reference: patent US11135234B2, “Effective aminoglycoside antibiotic for multidrug-resistant bacteria” (MICROBIAL CHEMISTRY RESEARCH FOUNDATION, priority 2015, dated 2021)
